Assay results taken from US20220347180A1, “ENHANCING CANCER THERAPY TREATMENT WITH BH3 MIMETICS” (THE REGENTS OF THE UNIVERSITY OF COLORADO, A BODY CORPORATE, priority 2019, published 2022).
Entries after “also recorded” stand apart in the source; their conditions may differ. Read-outs that look alike come from different tables or passages of the source.

Key:
MB2724 melanoma line = assay: ATP viability assay (Cell Titer-Glo); format: cell-based; conditions: Homo sapiens; MB2724, Triple WT, acral, 48 h
Method: (§1) Cells were treated for 48 h for viability assays and primary sphere assays.
(§2) ATP viability assay, primary and secondary sphere assays: Cell viability was evaluated via Cell Titer-Glo Luminescent cell viability assay (Promega Corp., Madison, Wis.) according to the manufacturer's protocol. All sphere assays were completed as previously described. The experimental schematic for the primary and secondary sphere assays was described previously. All assays were performed in no less than triplicate for each cell line and repeated at least three times for each line. Drug treatments began 120 h after seeding in the primary sphere assay and 24 h after seeding for the monolayer ATP assay.
(§3) Calculation of IC50 and Combination index (CI) values: IC50 values were calculated from the relative viability results of ATP assays, and were derived by a sigmoidal dose (log)-response (variable slope) curve with GraphPad Prism 8 software. […] This method uses a median-effect equation and Combination-index theorem to calculate synergy between two drugs and identifies the drug interaction as values […]. This is defined as combination-index values (CI values). The program requires entering a series of “dose (D) and effect (fa)” into the program for each drug alone as well as the combination therapy.

MB1692 melanoma line = assay: ATP viability assay (Cell Titer-Glo); format: cell-based; conditions: Homo sapiens; MB1692, AGK-BRAF, 48 h
Method: as §1, §2, §3

MB4667 melanoma line = assay: ATP viability assay (Cell Titer-Glo); format: cell-based; conditions: Homo sapiens; MB4667, NRAS Q61R, acral, 48 h
Method: as §1, §2, §3

WM852c melanoma line = assay: ATP viability assay (Cell Titer-Glo); format: cell-based; conditions: Homo sapiens, NRAS, 48 h
Method: as §1, §2, §3

MB3429 melanoma line = assay: ATP viability assay (Cell Titer-Glo); format: cell-based; conditions: Homo sapiens, 48 h
Method: as §1, §2, §3

A375 melanoma line = assay: ATP viability assay (Cell Titer-Glo); format: cell-based; conditions: Homo sapiens, A-375; A375, BRAFV600E, 48 h
Method: as §1, §2, §3

MB3961 melanoma line = assay: ATP viability assay (Cell Titer-Glo); format: cell-based; conditions: Homo sapiens; MB3961, NRAS Q61K, 48 h
Method: as §1, §2, §3

MB3616 melanoma line = assay: ATP viability assay (Cell Titer-Glo); format: cell-based; conditions: Homo sapiens; MB3616, NRAS Q61K, 48 h
Method: as §1, §2, §3

1205Lu melanoma line = assay: ATP viability assay (Cell Titer-Glo); format: cell-based; conditions: Homo sapiens, BRAFV600E, 48 h
Method: as §1, §2, §3

Hs294T melanoma line = assay: ATP viability assay (Cell Titer-Glo); format: cell-based; conditions: Homo sapiens, Hs 294T, WT for BRAF/NRAS, 48 h
Method: as §1, §2, §3

MB3447 melanoma line = assay: ATP viability assay (Cell Titer-Glo); format: cell-based; conditions: Homo sapiens; MB3447, Triple WT, 48 h
Method: as §1, §2, §3

SKMEL-28 melanoma line = assay: ATP viability assay (Cell Titer-Glo); format: cell-based; conditions: Homo sapiens, SK-MEL-28; SKMEL-28, BRAFV600E, 48 h
Method: as §1, §2, §3

MB2141 melanoma line = assay: ATP viability assay (Cell Titer-Glo); format: cell-based; conditions: Homo sapiens; MB2141, EML4-ALK, mucosal, 48 h
Method: as §1, §2, §3

MB2114 melanoma line = assay: ATP viability assay (Cell Titer-Glo); format: cell-based; conditions: Homo sapiens; MB2114, BRAF V600E, 48 h
Method: as §1, §2, §3

Hs852T melanoma line = assay: ATP viability assay (Cell Titer-Glo); format: cell-based; conditions: Homo sapiens, WT for BRAF, 48 h
Method: as §1, §2, §3

[1] = higher doses and more frequently than in the current study; cited from earlier work
[2] = tested on: regulatory T cells (Tregs); conditions: cited from earlier work
B16F10 melanoma cells = format: in vivo; conditions: retro-orbitally daily at 40 mg/kg from day 6 post implantation
Method: (§4) 2.0×10^5 B16F10 melanoma cells were injected in the flanks of 7-week-old C57BL/6J mice on day 0. MCL1 inhibitors was administered retro-orbitally daily at 40 mg/kg, starting at day 6 post tumor implantation. […] Flow cytometry of tumor-infiltrating immune cells of Veh (vehicle control) and 40 mg/kg MCL1 inhibitor S63845 treated tumors at day 10 post tumor implantation. […] Similar experiments as in a, except with i.p injection. […] 2.0×10^5 B16F10 melanoma cells were injected in the flanks of 7-week-old C57BL/6J mice. MCL1-i was administered through retro-orbital injection daily at 40 mg/kg on days 5-9, and anti-PD1 was injected intraperitoneally at 250 ug on days 7, 11, 14 and 16.
(§5) Tumor volume was measured every 2 days with digital calipers. The following formula was used to calculate tumor volume: tumor volume (mm3)=(length in mm×width in mm2)/2.
Tumor volume was measured every 2 days with digital calipers.

[3] = tested on: tumor-infiltrating immune cells; assay: Flow cytometry of tumor-infiltrating immune cells, B16 syngeneic model; format: in vivo, mouse; conditions: 40 mg/kg, day 10 post tumor implantation
Method: as §4, §5

human melanoma lines = assay: ATP viability assay, panel of melanoma lines; format: cell-based; conditions: single drug, up to 2.5 uM, 48 h
Method: as §1, §2, §3

A375 cells = assay: Viability of A375 cells with BCL2 or MCL1 knockdown; format: cell-based, human; conditions: A375, 48 h
Source text: (a and b) Comparison between two genotypic groups: BRAF-hotspot mutated (MUT) (n=110) and BRAF-WT (WT) (harboring RAS hotspot mutated, any NF1 mutated, and triple wild type n=122). Panel (a) mRNA expression values for BCL2, CASP8, PDCD4, and MCL1. Panel (b) Relative RPPA protein expression values for PDCD4, CASP8, and BCL2. MCL1 was not included on the RPPA panel. Each dot represents an individual sample, and the horizontal line represents the mean. Panels (c) and (d) show the effects of BCL2 or MCL1 knockdown in A375 cells. Cells were treated with the indicated drugs for 48 h. […] Error bars represent +/−SEM.
Creation of short hairpin RNA transduced cell lines and CRISPR/Cas9-mediated BIM knockout cell lines: ShRNA lentiviral particles (Santa Cruz Biotechnology, Dallas, Tex.) were used to construct stable cell lines as previously described. BIM-knockout lines were generated using CRISPR/Cas9 technology, as previously described.

MP41 = MP41 uveal melanoma xenograft
Method: A uveal melanoma cell line, MP41, was used in the xenograft study, and tumor volume Panel (a) and weight of the mice Panel (b) were measured.
The viability of the DMSO control for each cell line was set to 100%. Panel (c) A uveal melanoma line, MP41, was used in the xenograft study, and tumor volume and weight of the mice were measured.
Drug treatments started when the tumors were palpable. Treatment groups consisted of randomly divided mice of at least 8 tumors each group. All drugs were prepared according to the manufacturer's protocol, or previously described. S63845 was administered at 25 mg/kg twice weekly. […] The tumor samples were collected at the end of the experiment for further studies.

SMILES | IC50 (MB2724 melanoma line) [µM] | IC50 (MB1692 melanoma line) [µM] | IC50 (MB4667 melanoma line) [µM] | IC50 (WM852c melanoma line) [µM] | IC50 (A375 melanoma line) [µM] | IC50 (MB3961 melanoma line) [µM] | IC50 (MB3616 melanoma line) [µM] | IC50 (1205Lu melanoma line) [µM] | IC50 (Hs294T melanoma line) [µM] | IC50 (MB3447 melanoma line) [µM] | IC50 (SKMEL-28 melanoma line) [µM] | IC50 (MB2141 melanoma line) [µM] | IC50 (MB2114 melanoma line) [µM] | IC50 (Hs852T melanoma line) [µM] | further results
CC1(C)CCC(CN2CCN(c3ccc(C(=O)NS(=O)(=O)c4ccc(NCC5CCOCC5)c([N+](=O)[O-])c4)c(Oc4cnc5[nH]ccc5c4)c3)CC2)=C(c2ccc(Cl)cc2)C1 [ABT-199, venetoclax] | > 10 | > 10 | 7.69 | > 10 | > 10 | > 10 | 9.69 | > 10 | > 10 | > 10 | > 10 | > 10 | > 10 | 8.8 | IC50 (MB3429 melanoma line; MB3429, BRAF G596C, GNA11 R183C, read-out: IC50): 3.91 µM
Cc1c2c(nn1C)CSCc1cc(n(C)n1)CSc1cc(c3ccccc3c1)OCCCc1c(C(=O)O)n(C)c3c-2c(Cl)ccc13 [AZD5991] | – | – | – | – | – | – | – | – | – | – | – | – | – | – | toxicity [1]: Minimal toxicity
COC1=CC(c2cc3ccccc3[nH]2)=N/C1=C\c1[nH]c(C)cc1C [GX15-070] | – | – | – | – | – | – | – | – | – | – | – | – | – | – | cell death of regulatory T cells [2]: preferentially induces cell death
Cc1c(-c2c(-c3ccc(F)o3)sc3ncnc(O[C@H](Cc4ccccc4OCc4ccnn4CC(F)(F)F)C(=O)O)c23)ccc(OCCN2CCN(C)CC2)c1Cl [S63845] | 3.24 | 7.42 | > 10 | 7.81 | 6.33 | 2.91 | 8.11 | 7.2 | 2.9 | 5.49 | 4 | 2.67 | > 10 | 6.14 | tumor growth (B16F10 melanoma cells): blocked tumor growth; also recorded: inhibited tumor growth curve; frequency of MDSCs in tumors [3]: drastically decreased; frequency of tumor-infiltrating CD8+ T cells [3]: increased; effect on cell viability (human melanoma lines): little effect on cell viability; sensitivity after BCL2 knockdown (shBCL2) (A375 cells): sensitized cells; mouse weight (MP41): without affecting mouse weight; tumor growth (tumor volume) (MP41): significantly inhibited uveal melanoma tumor growth; IC50 (MB3429 melanoma line): 8.85 µM
